The text below walks through data of ChEMBL document CHEMBL3507680, “University of Dundee, Gates Library screen for HepG2 cell viability”.

SMILES strings stand for the structures.

The data set can be described thus: Human HepG2 cell viability assay in 384 well format. Type of data set: toxicity, cell-based. More on the design: dose 125 nL, time 70.5 hour; concentration not given beside the values. The note with it: HepG2 cells, read-out: Inhibition.
As to `C/N=C1\c2cc3cc(OC)ccc3n2CCN1C`, the cytotoxicity at 70.5 h is -6.1%. As for `CC(C)CS(=O)(=O)Nc1ccc2c(c1)OCC(C)(C)C(=O)N2C`, the figure is 50.7%.

In the case of `CCc1cc(=O)[nH]c2nnc(SCC(=O)NC)n12`, the cytotoxicity at 70.5 h is 14.5%. With `CCc1cc(=O)[nH]c2nnc(SCC(=O)NC(C)C)n12` the figure was 17.6%; with `NC(=O)CSc1nnc2[nH]c(=O)c3c(n12)CCCC3`, -12.6%. As for `COC(=O)CSc1nnc2[nH]c(=O)c3c(n12)CCCC3`, the figure is -13.8%. As for `CCCNC(=O)CSc1nnc2[nH]c(=O)c3c(n12)CCCC3`, the figure is 12.2%; as for `COc1nn(C)cc1C(=O)N1CCC(C)CC1`, 26.1%.

For `O=C(Nc1ncnc2c1CCC2)c1ccc2c(c1)OCO2`, the cytotoxicity at 70.5 h was determined as 1.01%. With `Cc1cnc2c(c1NCc1cccnc1)c(=O)n(C)c(=O)n2C` the figure was -0.599%; with `CCc1cnc2c(c1Nc1ccc3c(c1)OCO3)c(=O)n(C)c(=O)n2C`, -1.57%; with `CNC(=O)Cn1nc(C(C)C)c2cnn(C(C)(C)C)c2c1=O`, 25.5%. `COc1ccc(CCC(=O)NCc2cc(C)on2)cc1`: the cytotoxicity at 70.5 h is 8.95%. As for `Cc1cnc2n(c1=O)C(CC(=O)NCc1ccc(Cl)cc1)CS2` (centres undefined), the figure is -5.3%; as for `Cc1cnc2n(c1=O)C(CC(=O)NCc1ccco1)CS2` (centres undefined), -0.737%. As for `CCCc1cc(=O)[nH]c2nnc(SCC(=O)NC(C)(C)C)n12`, the figure is -8.6%; as for `CCn1cnc2c(cnn2-c2cccc(C)c2C)c1=O`, 45.8%. As for `CCCn1cnc2c(cnn2-c2cccc(C)c2C)c1=O`, the figure is 37.7%. `CCCc1cc(=O)n(CC(=O)NC(C)C)c(-n2nc(C)cc2C)n1`: the cytotoxicity at 70.5 h was -4.73%. With `O=C(CSC1=NS(=O)(=O)c2cc(F)ccc2N1)Nc1ccc(Cl)c(Cl)c1` the figure was 19.7%; with `COCC(=O)NCc1nn(CCN2CCCC2)c(=O)c2ccccc12`, 29%. As to `CCOC(=O)NCc1nn(CCN2CCCC2)c(=O)c2ccccc12`, the cytotoxicity at 70.5 h was 1.9%. As for `Cn1cnnc1SCCCNC(=O)Nc1ncccn1`, the figure is -2.46%. With `COc1cn(CC(N)=O)c(CSc2nccc(C)n2)cc1=O` the figure was 23.4%.

With `C=Cc1ccc(CSc2nc3c(c(=O)[nH]2)CN(CCC)CC3)cc1`, the cytotoxicity at 70.5 h worked out at 8.58%. As for `CC(=O)c1c(C)nn(CC(=O)Nc2ccc(Br)cc2)c1C`, the figure is 4.72%. For `CC(C)(C)S(=O)(=O)c1ccc(N2CCN(c3ccccc3)CC2)nn1`, the cytotoxicity at 70.5 h is -8.92%. With `CC(C)(C)S(=O)(=O)c1ccc(N2CCN(c3ccccn3)CC2)nn1` the figure was -17.1%; with `CCCS(=O)(=O)c1ccc(N2CCN(c3ccccn3)CC2)nn1`, 2.28%; with `COC(=O)CNC(=O)c1sccc1N(C)S(=O)(=O)c1ccc(Cl)cc1`, 2.69%. As for `CCN(c1ccsc1C(=O)N1CCCCC1)S(=O)(=O)c1ccccc1`, the figure is -11.9%; as for `CCN(CC)c1nc2ccsc2c(=O)n1CCC(=O)NCc1cccs1`, -9.85%. With `COC(=O)CN1N=C(C(=O)N2CCCC2)S(=O)(=O)c2ccccc21` the figure was -4.54%; with `COc1ncc(C(=O)NCc2ccc(Br)cc2)cn1`, -2.74%; with `O=c1c(S(=O)(=O)N2CCCC2)cccn1Cc1ccccc1Cl`, -6.09%. For the compound `O=c1[nH]c2c(-c3ccccn3)nsc2c(=O)n1CC1CCCO1` (centres undefined), the cytotoxicity at 70.5 h was -11.7%. As for `Cc1cc(C)n(-c2ccnc(N3CCC(C(=O)N4CCCC4)CC3)n2)n1`, the figure is -4.06%; as for `COc1ccc(OC)c(C(O)CN2CCN(c3cccc(C)c3)CC2)c1` (centres undefined), 7.32%; as for `O=C(O)C1CCN(c2nc3c(-c4ccccc4F)csc3c(=O)[nH]2)CC1`, -0.14%. As for `COCCCNC(=O)Cc1cc(-c2ccc3c(c2)OCO3)on1`, the figure is 13.4%; as for `COc1nn(C)cc1-c1nnc(SCc2cccnc2)n1C`, -5.69%. With `CCOc1nn(CC)cc1-c1nnc(SCc2ccccn2)n1C` the figure was -6.8%; with `CC(=O)N1C[C@H]2CCCN(c3ncc(C)cn3)[C@H]2C1`, -11.8%. In the case of `Cc1cnc(N2CCC[C@@H]3CN(S(C)(=O)=O)C[C@@H]32)nc1`, the cytotoxicity at 70.5 h was -14.9%.

Turning to `O=C(CCO)N1CC2(CCN(c3ccccc3)C2)C1`, the cytotoxicity at 70.5 h was -1.72%. As for `CC(C)NC(=O)N1CCC2(CCCO2)C1` (centres undefined), the cytotoxicity at 70.5 h worked out at 14.2%. As for `CCOC1CC2(CCN(Cc3cnn(C)c3)CC2)c2ccc(C)cc21` (centres undefined), the figure is 1.09%. With `CCCN1CCC2(C1)c1ccccc1S(=O)(=O)N2Cc1ccc(F)cc1` (centres undefined) the figure was -1.79%; with `CCOC(=O)C1CN(S(C)(=O)=O)Cc2ncn(CC)c21` (centres undefined), -0.182%. With `Cc1ccc(NC(=O)c2nc3c(s2)CCCN3C(C)C)cn1` the figure was -0.97%; with `c1coc(CN2CCn3c(CN4CCOCC4)nnc3C2)c1`, -1.27%.

As for `Cc1noc([C@]23COC[C@H]2CN(S(C)(=O)=O)C3)n1`, the cytotoxicity at 70.5 h is -1.56%. As for `CCOC1CC2(CCN(CCO)CC2)c2ccc(C)cc21` (centres undefined), the figure is 1.71%. Regarding `CN(C)C(=O)NCc1nnc2n1CCN(Cc1ccsc1)C2`, the cytotoxicity at 70.5 h is 3.34%.

`O=C(c1cc(-c2ccn(CC3CC3)n2)n2ccccc12)N1CCOCC1`: the cytotoxicity at 70.5 h is -2.8%. Take `CN(C)C[C@H]1OC[C@@H]2CCN(C(=O)NCc3cccc(F)c3)C[C@@H]21`: the cytotoxicity at 70.5 h was -5.72%.

For the compound `O=C(C1CN(Cc2ccoc2)CC12CCOCC2)N1CCCC1` (centres undefined), the cytotoxicity at 70.5 h came to 7.01%.

Consider `O=C(O)c1cc(-c2ccn(CC3CC3)n2)n2ccccc12`, for which the cytotoxicity at 70.5 h was -1.77%.

As to `CC(=O)N1CC[C@H]2C(=O)N(c3ccsc3)CCO[C@H]2C1`, the cytotoxicity at 70.5 h was -2.46%. As for `CS(=O)(=O)NCc1noc2c1CN(C(=O)c1ccsc1)CC2`, the figure is -7.43%. With `O=C(NCc1ccco1)N1CCCCC1c1nc(-c2ccncc2)no1` (centres undefined) the figure was -12.6%. Take `Cc1ccc(N2N=C(C(=O)O)S(=O)(=O)c3cccnc32)cc1`: the cytotoxicity at 70.5 h was -8.77%. As for `CCc1nn2c(=N)c(C#N)n[nH]c2c1-c1ccc(OC)cc1`, the figure is -18.3%; as for `Cn1c(=O)n(C)c2cc(NS(=O)(=O)Cc3ccccc3)ccc21`, -6.3%. As for `COc1ccc(-c2c(C(C)C)nn3c(=N)c(C#N)n[nH]c23)cc1`, the cytotoxicity at 70.5 h was -20.1%. With `COc1ccc(-c2c(C)nn3c(=N)c(C#N)n[nH]c23)cc1OC` the figure was -15.3%; with `Cc1noc2nc3c(c(C(=O)/N=c4\[nH]ncs4)c12)CCC3`, 25.6%. With `COC(=O)CC1CCN(C(=O)c2ccc(-n3nnnc3C)cc2)CC1` the figure was -11.6%; with `O=c1cc(-c2ccc(F)cc2)nc2n1CCCCC2`, -14%; with `COC(=O)c1cc2c(OC)c(OC)c(OC)cc2[nH]1`, -19.4%.

For `COC(=O)c1cc2c(OC)c(C)c(OC)cc2[nH]1`, the cytotoxicity at 70.5 h is -9.36%.

Take `CN1CC2(CCN(Cc3cccnc3)CC2)c2cccc(F)c21`: the cytotoxicity at 70.5 h was -2.73%.

As for `Cc1ccc(C)c(CSc2nnc(C(N)Cc3ccccc3)o2)c1` (centres undefined), the cytotoxicity at 70.5 h was -14.6%. As for `Cc1noc([C@]23COC[C@H]2CN(C(C)C)C3)n1`, the figure is 1.38%; as for `CC(C)OCc1ncn2c1CN(CCO)CCC2`, -0.995%. With `CS(=O)(=O)NCc1cc(=O)n2c(n1)CN(Cc1ccco1)CCC2` the figure was -1.24%; with `CC(C)N1CCO[C@H]2CN(C(=O)Cc3cccs3)C[C@H]21`, -3.28%; with `COCCN1CCO[C@@H]2CN(C(=O)Cc3ccccc3)CC[C@@H]2C1`, -0.0515%.

With `CN(C)C(=O)COCc1nnc2n1CCN(Cc1ccoc1)C2`, the cytotoxicity at 70.5 h is -3.1%.

Turning to `OCCN1CCOC2(CCCN(c3ncc(F)cn3)C2)C1` (centres undefined), the cytotoxicity at 70.5 h is -3.36%.

Turning to `CN1CCCn2c(nc(CNS(=O)(=O)C3CC3)cc2=O)C1`, the cytotoxicity at 70.5 h was -1.98%. Turning to `O=C(C1CN(CC2CCOCC2)CC12CCOCC2)N1CCCC1` (centres undefined), the cytotoxicity at 70.5 h was -2.27%. For `CC(C)Nc1nc2c(c(N(C)C)n1)CCN(Cc1nccn1C)CC2`, the cytotoxicity at 70.5 h was found to be 10.1%. As for `Cc1cnc(N2CCC3(CC2)CN(c2ccsc2)C(=O)CO3)nc1`, the figure is -5%. With `COCCN1CCN(S(C)(=O)=O)Cc2ccc(C)nc21` the figure was -2.02%; with `CCCS(=O)(=O)N1CCN(CCOC)c2nc(C)ccc2C1`, -8.9%; with `CCN1CCOCC12CCN(C(=O)Cc1cccs1)CC2`, -8.5%. With `Cc1ccc2c(n1)N(CC1CC1)CCN(S(=O)(=O)C1CC1)C2` the figure was -5.85%. `Fc1ccc(CNCC2Cn3nncc3CO2)cc1` (centres undefined): the cytotoxicity at 70.5 h is -7.4%. As for `Cc1cnc(N2CCC[C@@H]3CN(CC(=O)N(C)C)C[C@@H]32)nc1`, the figure is -6.11%; as for `Cc1ccc(N2C[C@@H]3CN(Cc4ccoc4)CCO[C@@H]3C2)nn1`, 10.2%. Consider `OCCN1CC2(CCN(c3ccccc3)C2)C1`, for which the cytotoxicity at 70.5 h was determined as 0.92%. With `Cc1ccc(NCc2cn3c(n2)CN(Cc2ccc(C)o2)CC3)nn1`, the cytotoxicity at 70.5 h was -4.46%. For `Cc1ccc2c(c1)C(N(C)C)CC21CCN(CCO)CC1` (centres undefined), the cytotoxicity at 70.5 h is -0.704%.

With `CN1[C@H](Cn2cncn2)C[C@@H]2CN(C3CCOCC3)CC[C@@H]21`, the cytotoxicity at 70.5 h was determined as 0.159%. With `Fc1ccc(CN2CCC3(CC2)CCN(Cc2nccs2)CC3)cc1` the figure was 1.45%; with `c1ccc(OCc2nnc3n2CCN(Cc2ccco2)C3)nc1`, -2.29%. `COCC(=O)N1CCCC2(COCCN(CCN(C)C)C2)C1` (centres undefined): the cytotoxicity at 70.5 h is 8.27%. With `CNC(=O)c1cnc2n1CCN(Cc1cccnc1)C2` the figure was -2.74%.
